Assay results taken from article PMC6775132, “Systematic identification of metabolites controlling gene expression in E. coli” (Nature Communications, 2019).
Values belong to the compound of their own block, whether it stands above or below them.

What was measured:
Experiment in all cases: microscale thermophoresis, labelled His-tagged protein
Assay type in all cases: binding
Settings in all cases: 50 mM NaH2PO4, 500 mM NaCl, pH 5.7, 21 °C; 50 nM protein
DhaR = target: T1, DhaR (Escherichia coli, UniProt P76016)
T1 construct: labelled through His-tag (RED-tris-NTA)
T1 sequence (P76016 1-639): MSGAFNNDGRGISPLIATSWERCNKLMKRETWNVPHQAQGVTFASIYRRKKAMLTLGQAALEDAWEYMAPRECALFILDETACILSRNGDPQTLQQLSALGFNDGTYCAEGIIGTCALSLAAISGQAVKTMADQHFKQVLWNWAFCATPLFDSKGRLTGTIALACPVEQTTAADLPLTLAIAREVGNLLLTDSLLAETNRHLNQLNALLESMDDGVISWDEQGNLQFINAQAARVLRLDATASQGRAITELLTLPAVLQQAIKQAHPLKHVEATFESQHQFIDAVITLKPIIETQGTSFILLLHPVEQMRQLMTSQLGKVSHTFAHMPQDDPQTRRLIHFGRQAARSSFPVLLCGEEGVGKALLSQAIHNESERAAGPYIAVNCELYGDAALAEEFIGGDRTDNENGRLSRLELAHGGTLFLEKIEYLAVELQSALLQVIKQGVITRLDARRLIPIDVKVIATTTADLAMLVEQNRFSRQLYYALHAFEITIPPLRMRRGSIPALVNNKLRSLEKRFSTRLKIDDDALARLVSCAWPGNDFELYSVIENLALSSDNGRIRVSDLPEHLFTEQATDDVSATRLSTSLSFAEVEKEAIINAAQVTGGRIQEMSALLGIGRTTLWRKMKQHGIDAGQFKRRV

ArgR = target: T2, ArgR (Escherichia coli, UniProt P0A6D0)
T2 construct: labelled through His-tag (RED-tris-NTA)
T2 sequence (P0A6D0 1-156): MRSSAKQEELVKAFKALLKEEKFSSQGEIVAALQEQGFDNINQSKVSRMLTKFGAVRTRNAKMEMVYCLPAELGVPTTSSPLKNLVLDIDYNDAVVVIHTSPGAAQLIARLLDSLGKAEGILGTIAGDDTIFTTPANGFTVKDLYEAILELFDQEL

TrpR = target: T3, TrpR (Escherichia coli, UniProt P0A881)
T3 construct: labelled through His-tag (RED-tris-NTA)

SoxR = target: T4, SoxR (Escherichia coli, UniProt P0ACS2)
T4 construct: labelled through His-tag (RED-tris-NTA)
T4 sequence (P0ACS2 1-154): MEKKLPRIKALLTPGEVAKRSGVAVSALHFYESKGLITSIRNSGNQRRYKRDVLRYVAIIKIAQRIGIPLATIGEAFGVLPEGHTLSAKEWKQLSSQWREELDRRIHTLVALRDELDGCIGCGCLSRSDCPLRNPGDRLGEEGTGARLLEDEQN

SgrR = target: T5, SgrR (Escherichia coli, UniProt P33595)
T5 construct: labelled through His-tag (RED-tris-NTA)
T5 sequence (P33595 1-551): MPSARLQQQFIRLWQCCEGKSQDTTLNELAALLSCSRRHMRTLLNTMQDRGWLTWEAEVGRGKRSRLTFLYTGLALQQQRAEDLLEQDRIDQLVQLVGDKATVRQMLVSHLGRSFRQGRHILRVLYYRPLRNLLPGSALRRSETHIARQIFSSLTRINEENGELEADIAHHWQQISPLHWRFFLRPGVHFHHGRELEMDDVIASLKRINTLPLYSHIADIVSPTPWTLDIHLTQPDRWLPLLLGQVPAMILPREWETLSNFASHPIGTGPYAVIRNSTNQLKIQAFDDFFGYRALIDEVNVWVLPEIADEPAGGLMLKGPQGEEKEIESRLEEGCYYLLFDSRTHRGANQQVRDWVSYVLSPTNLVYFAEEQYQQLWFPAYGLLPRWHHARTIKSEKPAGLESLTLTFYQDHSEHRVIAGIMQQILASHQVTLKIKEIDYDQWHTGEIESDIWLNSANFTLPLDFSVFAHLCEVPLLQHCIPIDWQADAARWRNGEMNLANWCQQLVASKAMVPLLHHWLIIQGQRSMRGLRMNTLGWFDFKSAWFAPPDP

SMILES: O=C(CO)COP(=O)(O)O [dhap, dihydroxyacetone phosphate]
KD (DhaR): DhaR binds the glycolysis intermediate dihydroxyacetone phosphate (DHAP)

SMILES: N=C(N)NCCC[C@H](N)C(=O)O [arg, arginine]
KD (ArgR): also confirmed the known arginine–ArgR and tryptophan–TrpR interactions

SMILES: N[C@@H](Cc1c[nH]c2ccccc12)C(=O)O [trp, tryptophan]
KD (TrpR): also confirmed the known arginine–ArgR and tryptophan–TrpR interactions
KD (SoxR): In vitro MST assays validated that SoxR binds tryptophan

KD (SgrR): SgrR binds glutamate
SMILES: N[C@@H](CCC(=O)O)C(=O)O [glu, glutamate]
